Source: ChEMBL document CHEMBL3301472, “MMV Malaria Box HIV and cytotoxicity screening”

Tests used:
Format in all cases: toxicity, cell-based
[1] = MMV: MTT Cytotoxicity Assay Day 7 pi of Assay #7 (compound washed out Day 1 pi), U87-CD4-CXCR4 cells, % cell death @ 5mM compound; settings: human, u87-cd4-cxcr4, 5000 µM
[2] = MMV: MTT Cytotoxicity Assay Day 3 pi, U87-CD4-CXCR4 cells, % cell death @ 5mM compound; settings: human, u87-cd4-cxcr4, 5000 µM
[3] = MMV: MTT Cytotoxicity Assay Day 3 pi, U87-CD4-CCR5 cells, % cell death @ 5mM compound; settings: human, u87-cd4-ccr5, 5000 µM
[4] = MMV: MTT Cytotoxicity Assay Day 7 pi of Assay #11 (NO washout), U87-CD4-CXCR4 cells, % cell death @ 5mM compound; settings: human, u87-cd4-cxcr4, 5000 µM
[5] = MMV: MTT Cytotoxicity Assay Day 7 pi of Assay #10 (NO washout), U87-CD4-CCR5 cells, % cell death @ 5mM compound; settings: human, u87-cd4-ccr5, 5000 µM
[6] = MMV: MTT Cytotoxicity Assay Day 7 pi of Assay #6 (compound washed out Day 1 pi), U87-CD4-CCR5 cells, % cell death @ 5mM compound; settings: human, u87-cd4-ccr5, 5000 µM

Row | SMILES | % Cell Death [1] | % Cell Death [2] | % Cell Death [3] | % Cell Death [4] | % Cell Death [5] | % Cell Death [6]
1 | COc1ccc(-n2ccnc2SCC(=O)Nc2cc(C)ccc2C)c(OC)c1 | -16 | 54 | 18 | 78 | 71 | 32
2 | CC1CCN(Cc2c(O)ccc3cc(-c4nc5ccccc5s4)c(=O)oc23)CC1 | -13 | 33 | 12 | 9 | 30 | 16
3 | COc1ccc(NC(=O)C2c3ccccc3C(=O)N(CC(C)C)C2c2cccs2)cc1Cl (centres undefined) | -21 | 22 | 13 | -10 | -2 | 5
4 | O=C(CCl)NCCOc1ccc(Cl)cc1Cl | -8 | 28 | 15 | 6 | 12 | -19
5 | COc1cc(OC)cc(N2C(=O)N(Cc3ccc(C(C)(C)C)cc3)c3ccccc3S2(=O)=O)c1 | -10 | 36 | 34 | 64 | 39 | 34
6 | CC(=O)NCCc1nc2ccccc2n1Cc1ccc(C(C)C)cc1 | -3 | 15 | -2 | 14 | 13 | 34
7 | Cc1ccc(-c2cc3nc4c(c(O)n3n2)CCCC4)cc1 | 52 | 56 | 70 | 97 | 113 | 24
8 | O=C(O)C(=O)O.Oc1ccc(Br)cc1CN1CCN(Cc2cccc(F)c2)CC1 | 86 | 101 | 107 | 112 | 103 | 94
9 | CC(C)=CCN1CCC(C(=O)Nc2ccc(-c3nc4ccccc4[nH]3)cc2)CC1 | 4 | 22 | 10 | -26 | 11 | 6
10 | CCc1ccc(CNCC(O)c2ccccc2)cc1.Cl (centres undefined) | 28 | 37 | -25 | 38 | 2 | -3
11 | O=C(Nc1ccccc1O)c1ccc(-c2ccc(Cl)cc2Cl)o1 | 66 | -23 | -37 | 64 | 11 | 34
12 | COc1cc(SC)ccc1C(=O)N1CCCC(C)C1 (centres undefined) | -26 | 28 | 9 | -41 | -5 | 12
13 | Cc1ccc(Nc2nc(NCCO)c3ccccc3n2)cc1C | -22 | 28 | -23 | 12 | 36 | 3
14 | Cc1cc(NC(=O)c2cccc(C(F)(F)F)c2)n(-c2nc(-c3ccc4c(c3)OCO4)cs2)n1 | -18 | 17 | 40 | -57 | 9 | 16
15 | COc1ccc(C=C2SC(=N)N(c3ccccc3OC)C2=O)cc1 | 95 | 101 | 100 | 93 | 143 | 100
16 | O=C(Nc1ccc(-c2nc3cc4ccccc4cc3[nH]2)cc1)c1cccc(Br)c1 | -24 | 42 | 16 | -33 | 7 | 13
17 | Cc1ccc2c(C)nc(Nc3nc(C)cc(-c4ccccc4)n3)nc2c1 | 97 | 99 | 107 | 104 | 114 | 98
18 | CCOc1ccc2nc(C)cc(Nc3ccc(Br)cc3)c2c1 | 72 | 64 | 82 | 106 | 108 | 26
19 | COc1cc(CNCCc2ccc(Cl)cc2)cc(OC)c1O | 11 | 35 | -11 | 91 | 18 | -15
20 | O=C1c2ccccc2C2=Nc3ccccc3SC(c3cccc(F)c3)C12 (centres undefined) | 28 | 20 | 11 | 4 | 7 | -3

Row | SMILES | % Cell Death [1] | % Cell Death [2] | % Cell Death [3] | % Cell Death [4] | % Cell Death [5] | % Cell Death [6]
21 | CCOc1ccc(N2C(N)=NC(N)=NC2(C)C)cc1.Cl | 35 | 57 | 56 | -36 | 135 | 56
22 | CCOc1cc2c(cc1OCC)C(c1cc(Cl)ccc1O)NCC2 (centres undefined) | 3 | 42 | 20 | 21 | 17 | -26
23 | c1ccc(/C2=N/c3ccccc3/N=C(/c3ccccc3)c3ccccc32)cc1 | -11 | 28 | -3 | 7 | 16 | 0
24 | CCOC(=O)C1=C(c2ccccc2)N=c2sc(=Cc3cc(C)n(-c4ccc(F)cc4)c3C)c(=O)n2C1c1cccc(OC)c1OC (centres undefined) | -3 | 45 | 18 | 20 | -17 | 5
25 | COc1ccccc1CNC(=O)CCn1c(=O)[nH]c2ccccc2c1=O | -15 | 12 | -7 | -16 | 16 | 7
26 | COc1ccc(CCN2C(=O)c3[nH]nc(-c4cc(Cl)c(C)cc4O)c3C2c2ccccc2F)cc1 (centres undefined) | -18 | 32 | 19 | -26 | 47 | -35
27 | O=C1CC(O)(C(F)(F)C(F)(F)F)Oc2ccccc21 (centres undefined) | -15 | 32 | -14 | 35 | 17 | 4
28 | O=C(Nc1cccc(-c2nc3ccccc3[nH]2)c1)c1cccc(NC(=O)c2ccco2)c1 | -31 | 22 | -8 | -18 | 20 | 11
29 | CC(Oc1ccc(NC(=O)c2cccs2)cc1)C(=O)c1ccc(Cl)cc1 (centres undefined) | 60 | 1 | -10 | -5 | 2 | 40
30 | Cc1ccc(CN2CCC(C(=O)Nc3ccc(-c4cc5ccccc5[nH]4)cc3)CC2)o1 | 20 | 20 | 33 | 22 | 65 | 31
31 | CCN(CC)CCCNc1nc(-c2ccc(Cl)cc2)nc2ccccc12 | 18 | 13 | -18 | -10 | 18 | 13
32 | CC1CC2=C(CC1CNCCCN(C)C)C(C)(C)CCC2 (centres undefined) | 23 | 36 | -1 | -30 | 19 | -9
33 | CCOc1cc(Cl)c(C(C)NC(=O)c2cccc(OC)c2)cc1OCC (centres undefined) | 16 | 37 | -1 | 28 | 24 | 10
34 | Clc1ccc2[nH]c3c(NCCCN4CCOCC4)ncnc3c2c1 | 91 | 100 | 110 | 118 | 141 | 105
35 | Cl.c1ccc2c(NCCCCCCNc3c4c(nc5ccccc35)CCCC4)c3c(nc2c1)CCCC3 | -18 | 32 | 12 | 9 | 34 | -1
36 | COc1cccc(O)c1CN1CCC2(CCCN(Cc3ccc(F)cc3)C2)C1 (centres undefined) | 21 | -7 | -63 | 6 | 7 | -1
37 | O=C1c2ccccc2-c2nnc(-c3ccc(Br)cc3)cc21 | 4 | 16 | 2 | -24 | 24 | 1
38 | CC(C)(C)CC(C)(C)NCC(O)COc1ccc(Cl)cc1Cl (centres undefined) | -31 | 39 | -7 | 8 | -1 | -12
39 | CCOc1ccc(-c2nonc2NC(=O)c2cccc(C)c2)cc1OCC | -14 | 13 | -8 | -48 | 19 | -8
